{
  "source": "paper PMC9873984",
  "about": "“Membrane cholesterol regulates inhibition and substrate transport by the glycine transporter, GlyT2” (Life Science Alliance, 2023)",
  "key": {"GlyT2 Y430F mutant": {"molecular_target": "T1, GlyT2 Y430F mutant (Homo sapiens, UniProt Q9Y345, Y430F)", "T1 sequence (Q9Y345 1-797 Y430F)": "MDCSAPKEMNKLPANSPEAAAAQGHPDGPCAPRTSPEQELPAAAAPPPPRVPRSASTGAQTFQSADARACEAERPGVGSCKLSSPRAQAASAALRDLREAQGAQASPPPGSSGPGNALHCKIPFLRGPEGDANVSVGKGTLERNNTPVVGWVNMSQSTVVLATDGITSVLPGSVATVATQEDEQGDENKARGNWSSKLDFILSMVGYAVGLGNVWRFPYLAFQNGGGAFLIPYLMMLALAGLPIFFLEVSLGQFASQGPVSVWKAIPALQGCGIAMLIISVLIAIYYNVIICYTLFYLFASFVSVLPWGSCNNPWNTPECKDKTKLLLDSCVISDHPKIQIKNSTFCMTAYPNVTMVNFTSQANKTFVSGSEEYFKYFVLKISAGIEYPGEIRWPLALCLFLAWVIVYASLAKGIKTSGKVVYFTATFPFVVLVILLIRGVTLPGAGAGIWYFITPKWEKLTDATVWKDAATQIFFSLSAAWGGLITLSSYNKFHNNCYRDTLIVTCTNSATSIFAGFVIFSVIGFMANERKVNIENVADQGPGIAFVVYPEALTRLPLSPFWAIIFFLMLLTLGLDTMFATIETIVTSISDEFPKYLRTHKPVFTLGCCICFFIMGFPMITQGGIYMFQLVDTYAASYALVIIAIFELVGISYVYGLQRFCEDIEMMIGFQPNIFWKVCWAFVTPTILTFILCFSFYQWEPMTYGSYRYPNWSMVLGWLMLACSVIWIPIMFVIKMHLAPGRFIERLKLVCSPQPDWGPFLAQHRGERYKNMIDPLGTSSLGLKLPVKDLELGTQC", "test": "Inhibitor washout time course (reversibility)", "assay_type": "cell-based", "design": "expressed in transfected cells; host or cells: Xenopus laevis oocytes injected with mutant RNA (pOTV vector)", "description": "(§1) Reversibility of GlyT2 inhibitors was determined by applying an EC50 concentration of glycine followed by co-application of the inhibitor at an IC50 concentration once a stable current had been achieved. Inhibitors were applied for 4 min as this was sufficient time to produce substantial inhibition for each compound and allowed for their direct comparison. At the conclusion of 4 min (time 0), ND96 buffer was perfused through the recording chamber to wash the oocyte. […] Transport currents were normalized to glycine currents in the absence of inhibitor and converted to % recovery values via Y=It−It=0/Imax−It=0, where Y is % recovery, I is current in nA, Imax is the maximal current produced by the glycine EC50, and t is time in minutes. Washout kinetics were then determined by fitting % recovery values to the first-order rate equation: Y=(Y0−Plateau).e^(−Kt)+Plateau, where Y is the % recovery, Y0 is the point, which crosses the Y-axis (constrained to 0) and increases to the plateau (constrained to between 0 and 100), K is the rate constant (1/t), and t is time in minutes. […] Because of the slowly […] nature of the inhibitors, washout time courses involving cyclodextrin treatment could not be performed on the same cell. […] As these experiments could not occur on the same cell, differences in half-life and maximal recovery were analysed via an unpaired two-tailed t test."}, "GlyT2 Y430L mutant": {"molecular_target": "T2, GlyT2 Y430L mutant (Homo sapiens, UniProt Q9Y345, Y430L)", "T2 sequence (Q9Y345 1-797 Y430L)": "T1 sequence (Q9Y345 1-797 Y430F) with F430L", "test": "Inhibitor washout time course (reversibility)", "assay_type": "cell-based", "design": "expressed in transfected cells; host or cells: Xenopus laevis oocytes injected with mutant RNA (pOTV vector)", "description": "as §1"}, "[1]": {"conditions": "washout after 4 min IC50 concentration"}},
  "note": "Changes are numbered by the printed parent chain.",
  "data": [
    {"smiles": "CCCCCCCC/C=C\\CCCCCCCC(=O)O[C@H](CC(=O)[O-])C[N+](C)(C)C", "note": "[Oleoyl-L-Carnitine, oleoyl-L-carnitine]", "values": [
      {"measurement": "Recovery at 30 Min", "setting": "GlyT2 Y430F mutant; [1]", "value": 24.7, "unit": "%"},
      {"measurement": "Recovery at 30 Min", "setting": "GlyT2 Y430L mutant; [1]", "value": 80.6, "unit": "%"}
    ]},
    {"smiles": "CCCCCCCC/C=C\\CCCCCCCC(=O)N[C@@H](CC(C)C)C(=O)O", "note": "[Oleoyl-L-Leucine, oleoyl-L-leucine]", "values": [
      {"measurement": "Reduction in recovery of current 30 min after application, vs WT", "setting": "GlyT2 Y430F mutant", "value": 24.5, "unit": "%"},
      {"measurement": "Recovery at 30 Min", "setting": "GlyT2 Y430F mutant; [1]", "value": "26.6 ± 2.3", "unit": "%"},
      {"measurement": "Increase in recovery of current 30 min after application, vs WT", "setting": "GlyT2 Y430L mutant", "value": 16.8, "unit": "%"},
      {"measurement": "Recovery at 30 Min", "setting": "GlyT2 Y430L mutant; [1]", "value": "67.9 ± 2.3", "unit": "%"}
    ]},
    {"smiles": "CCCCCCCC/C=C\\CCCCCCCC(=O)N[C@@H](CCCCN)C(=O)O", "note": "[Oleoyl-L-Lysine, oleoyl-L-lysine]", "values": [
      {"measurement": "Increase in recovery after 30 min, vs WT", "setting": "GlyT2 Y430F mutant", "value": 13.4, "unit": "%"},
      {"measurement": "Recovery at 30 Min", "setting": "GlyT2 Y430F mutant; [1]", "value": "68.5 ± 2.1", "unit": "%"},
      {"measurement": "Increase in recovery of current 30 min after application, vs WT", "setting": "GlyT2 Y430L mutant", "value": 17.4, "unit": "%"},
      {"measurement": "Recovery at 30 Min", "setting": "GlyT2 Y430L mutant; [1]", "value": "72.5 ± 2.1", "unit": "%"}
    ]},
    {"smiles": "CCCCCCCC/C=C\\CCCCCCCC(=O)N[C@@H](Cc1c[nH]c2ccccc12)C(=O)O", "note": "[Oleoyl-L-Tryptophan, oleoyl-L-tryptophan]", "values": [
      {"measurement": "Half-life (transport current recovery)", "setting": "GlyT2 Y430F mutant; [1]", "value": "No Recovery"},
      {"measurement": "Recovery at 30 Min", "setting": "GlyT2 Y430F mutant; [1]", "value": "No Recovery"},
      {"measurement": "Half-life (transport current recovery)", "setting": "GlyT2 Y430L mutant; [1]", "value": "No Recovery"},
      {"measurement": "Recovery at 30 Min", "setting": "GlyT2 Y430L mutant; [1]", "value": "No Recovery"}
    ]}
  ]
}
